Data from patent US20230145793A1, “SUBSTITUTED PYRIMIDINE OR PYRIDINE AMINE DERIVATIVE, COMPOSITION THEREOF, AND MEDICAL USE THEREOF” (SHANGHAI HAIYAN PHARMACEUTICAL TECHNOLOGY CO., LTD., priority 2020, published 2023).
Read-outs that look alike come from different tables or passages of the source.

Assays:
A2A receptor [1] = molecular target: T1, A2A receptor (Homo sapiens, UniProt P29274); assay: Test 1: inhibitory activity to the A2A receptor, cAMP HTRF in CHO-K1/ADORA2A/Gα15 cells, NECA 50 nM; assay type: cell-based
T1 construct: host or cells: CHO-K1 (co-expressing Gα15)
T1 sequence (P29274 whole entry): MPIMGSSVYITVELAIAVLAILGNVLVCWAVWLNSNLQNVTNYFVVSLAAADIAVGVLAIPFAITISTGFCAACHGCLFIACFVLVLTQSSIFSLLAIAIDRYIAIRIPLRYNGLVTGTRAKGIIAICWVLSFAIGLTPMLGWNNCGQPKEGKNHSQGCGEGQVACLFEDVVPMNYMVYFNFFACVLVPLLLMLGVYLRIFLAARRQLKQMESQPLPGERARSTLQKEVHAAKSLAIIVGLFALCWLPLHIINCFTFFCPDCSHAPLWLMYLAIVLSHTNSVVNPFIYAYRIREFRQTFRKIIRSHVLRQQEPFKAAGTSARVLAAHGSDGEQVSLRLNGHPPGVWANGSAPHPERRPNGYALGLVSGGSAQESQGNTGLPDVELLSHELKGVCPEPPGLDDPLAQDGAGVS
Method: (§1) Test 1: Inhibitory Activities to the A2A Receptor and the A2B Receptor CHO-K1/ADORA2A/Gα15 (GenScript, M00246) and CHO-K1/ADORA2B/Gα15 (GenScript, M00329) cells were cultured in a Ham's F-12 (Gibco, 31765092) medium containing 10% FBS, Zeocin (200 ug/mL), and Hygromycin B (100 ug/mL), or containing 10% FBS, G418 (400 ug/mL), and Hygromycin B (100 ug/mL) under culture conditions specified in the corresponding instruction. Screening procedure was as follows: 1. The cell density was adjusted with a serum-free medium to 6×10^5 cells/mL. 2. 5 uL of cell solution, 2.5 μL of NECA (Sigma, 119140-10MG), and 2.5 μL of compound solution were placed into each well of a 384-well plate (Greiner Bio-One, 784075) in sequence, the final concentration of NECA was 50 nM (CHO-K1/ADORA2A) or 10 nM (CHO-K1/ADORA2B), and the compound solution was subjected to 3-fold dilution from the final concentration of 3 uM. 3. The cells were placed still and cultured in an incubator at 37° C. for 30 min. 4. 5 μL of cAMP-d2 and 5 μL of cAMP-ab (Cisbio, 62AM4PEB) were added in sequence. 5. The 384-well plate was placed in dark at the room temperature for 1 h. 6. The plate was read (Victor X5, PerkinElmer), data were analyzed by XLfit nonlinear regression, and IC50 values of the compounds were calculated.

A2B receptor [2] = molecular target: T2, A2B receptor (Homo sapiens, UniProt P29275); assay: Test 1: inhibitory activity to the A2B receptor, cAMP HTRF in CHO-K1/ADORA2B/Gα15 cells, NECA 10 nM; assay type: cell-based
T2 construct: host or cells: CHO-K1 (co-expressing Gα15)
T2 sequence (P29275 1-332): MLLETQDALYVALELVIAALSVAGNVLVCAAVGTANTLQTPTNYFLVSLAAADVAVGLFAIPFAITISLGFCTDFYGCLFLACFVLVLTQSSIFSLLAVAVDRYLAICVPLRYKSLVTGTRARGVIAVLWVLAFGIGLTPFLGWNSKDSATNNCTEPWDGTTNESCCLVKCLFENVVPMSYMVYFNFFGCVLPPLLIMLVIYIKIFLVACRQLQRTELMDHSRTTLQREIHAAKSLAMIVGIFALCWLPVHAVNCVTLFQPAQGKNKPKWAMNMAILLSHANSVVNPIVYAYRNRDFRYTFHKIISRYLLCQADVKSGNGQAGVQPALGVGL
Method: as §1

A2A receptor [3] = molecular target: T1, A2A receptor; assay: Test 2: inhibitory activity to the A2A receptor, cAMP HTRF in CHO-K1/ADORA2A/Gα15 cells, NECA 1 uM; assay type: cell-based
Method: (§2) Test 2: Inhibitory Activities to the A2A Receptor and the A2B Receptor
(§3) Screening procedure was as follows:
(§4) 1. The cell density was adjusted with a serum-free medium to 6×10^5 cells/mL.
(§5) 3. The cells were placed still and cultured in an incubator at 37° C. for 30 min.
(§6) 4. 5 μL of cAMP-d2 and 5 μL of cAMP-ab (Cisbio, 62AM4PEB) were added in sequence.
(§7) 5. The 384-well plate was placed in dark at the room temperature for 1 h.
(§8) 6. The plate was read (Victor X5, PerkinElmer), data were analyzed by XLfit nonlinear regression, and IC50 values of the compounds were calculated.

A2B receptor [4] = molecular target: T2, A2B receptor; assay: Test 2: inhibitory activity to the A2B receptor, cAMP HTRF in CHO-K1/ADORA2B/Gα15 cells, NECA 0.1 uM; assay type: cell-based
Method: as §2, §3, §4, §5, §6, §7, §8

[5] = Test 3: in-vivo pharmacokinetics test in mice (plasma, LC/MS/MS); conditions: mouse, male ICR mice; for clearance: read-out: Clearance rate CLz
Method: Test 3: In-Vivo Pharmacokinetics Test
Mice were respectively administrated with the compound of the present disclosure by intravenous injection or intragastric administration, and the concentration of the drug in the plasma at different time points was determined by LC/MS/MS to explore pharmacokinetic behavior of the compound of the present disclosure in the mouse so as to evaluate the pharmacokinetic characteristics of the compound.
Experimental animals: healthy adult male ICR mice (weight: 25 to 40 g, 12 mice, mice in the intravenous injection group had free access to water and food, and mice in the intragastric administration group fasted overnight and had free access to water and food 4 h after administration), provided by Beijing Vital River Laboratory Animal Co., Ltd.
Administration method and dosage: before administration, animals that met the experimental requirements were selected, weighed, and marked. The ICR mice were subjected to tail vein administration (2 mg/kg, 5% DMSO, pH=4.5, 20% Captisol) or intragastric administration (10 mg/kg, 5% DMSO, pH=4.5, 20% Captisol).
Blood sample collection: before blood sample collection, each mouse was tied, and about 100 μL of blood was collected from each mouse subjected to administration at a preset blood collection time point through the jugular vein (for the mice subjected to intravenous administration: blood was collected from each mouse at a total of 9 time points, i.e., 0.083 h, 0.25 h, 0.5 h, 1 h, 2 h, 4 h, 6 h, 7.5 h, and 24 h after administration; and for the mice subjected to intragastric administration: blood was collected from each mouse at a total of 9 time points, i.e., 0.083 h, 0.25 h, 0.5 h, 1 h, 2 h, 4 h, 6 h, 7.5 h, and 24 h after administration). The blood was transferred to a test tube (1.5 mL) containing K2EDTA and centrifuged for 4 min (8,000 rpm, 4° C.) to separate out plasma, and the whole process was completed within 15 min after blood collection. All samples were stored in a refrigerator at −20° C. before sample analysis. The concentration of the drug was determined by LC/MS/MS.
Pharmacokinetic property parameters of the compounds of some examples of the present disclosure in the mice under the conditions of same dosage and intravenous administration are shown in Table 3:
Pharmacokinetic property parameters of the compounds of some examples of the present disclosure in the mice under the conditions of same dosage and intragastric administration are shown in Table 4: […]

[6] = intravenous (tail vein) 2 mg/kg, read-out: Area under the curve AUC0-t
[7] = intravenous (tail vein) 2 mg/kg
[8] = po, intragastric administration 10 mg/kg
[9] = po, intragastric administration 10 mg/kg, read-out: Area under the curve AUClast

Structure (SMILES) | IC50 (A2A receptor [1]) [µM] | IC50 (A2B receptor [2]) [µM] | IC50 (A2A receptor [3]) [µM] | IC50 (A2B receptor [4]) [µM] | AUC(0-t) [5, 6] [ng·h/mL] | clearance [5, 7] [mL/min/kg] | Cmax [5, 8] [ng/mL] | AUC(0-t) [5, 9] [ng·h/mL]
Cc1c(C#N)cccc1-c1nc(N)c(F)c(-c2cn(Cc3ccn(CCF)n3)nn2)n1 [Compound L-38] | 0.001 | 0.002 | 0.018 | 0.05 | 2590 | 12.7 | 7210 | 13300
Cc1c(C#N)cccc1-c1nc(N)c(Cl)c(-c2cn(Cc3cccc(C(C)(C)O)n3)nn2)n1 [Compound L-3] | < 0.001 | 0.004 |  |  | 3600 | 9.12 | 15900 | 22200
Cc1c(C#N)cccc1-c1nc(N)c(F)c(-c2cn(Cc3ccn(C4CC4)n3)nn2)n1 [Compound L-32] | < 0.001 | 0.001 |  |  | 2510 | 13.3 | 8980 | 14800
Cc1c(C#N)cccc1-c1nc(N)c(F)c(-c2cn(Cc3cccc(C(C)(C)O)n3)nn2)n1 [Compound L-1] | 0.001 | 0.003 | 0.024 | 0.062 |  |  |  | 
Cc1c(C#N)cccc1-c1nc(N)c(F)c(-c2cn(Cc3nc(C(C)(C)O)ccc3O)nn2)n1 [Compound L-94] |  |  | 0.016 | 0.038 |  |  |  | 
Cc1c(C#N)cccc1-c1nc(N)c(F)c(-c2cn(Cc3ccn(CC(F)F)n3)nn2)n1 [Compound L-44] | 0.001 | 0.004 | 0.022 | 0.064 |  |  |  | 
Cc1c(C#N)cccc1-c1nc(N)c(Cl)c(-c2cn(Cc3cc(C(C)(C)O)n(C)n3)nn2)n1 [Compound L-10] | 0.004 | 0.001 |  |  | 2740 | 12.1 | 12600 | 18000
Cc1c(C#N)cccc1-c1nc(N)c(Cl)c(-c2cn(Cc3ccn(C)n3)nn2)n1 [Compound L-9] | 0.001 | 0.001 |  |  | 4680 | 6.97 | 6790 | 23800
Cc1c(C#N)cccc1-c1nc(N)c(F)c(-c2cn(Cc3ccn(C4CCOCC4)n3)nn2)n1 [Compound L-89] | < 0.001 | 0.005 | 0.011 | 0.068 |  |  |  | 
Cc1c(C#N)cccc1-c1nc(N)c(Cl)c(-c2cn(Cc3cccc(S(C)(=O)=O)c3)nn2)n1 [Compound L-84] | 0.004 | 0.024 |  |  |  |  |  | 
Cc1c(C#N)cccc1-c1nc(N)c(F)c(-c2cn(Cc3cccc(CN4CCOCC4)n3)nn2)n1 [Compound L-70] | 0.002 | 0.013 |  |  |  |  |  | 
Cc1c(C#N)cccc1-c1nc(N)c(F)c(-c2cn(Cc3ccn(C)n3)nn2)n1 [Compound L-67] | 0.003 | 0.007 |  |  | 2310 | 14.2 | 5720 | 17300
Cc1c(C#N)cccc1-c1nc(N)c(F)c(-c2cn(Cc3ccn(C4COC4)n3)nn2)n1 [Compound L-88] | 0.002 | 0.008 |  |  |  |  |  | 
Cc1c(C#N)cccc1-c1nc(N)c(F)c(-c2cn(Cc3ccn(C4CC(F)(F)C4)n3)nn2)n1 [Compound L-19] | 0.003 | 0.006 |  |  |  |  |  | 
Cc1c(C#N)cccc1-c1nc(N)c(F)c(-c2cn(Cc3cccc(C(C)C)n3)nn2)n1 [Compound L-68] | 0.002 | 0.011 |  |  |  |  |  | 
Cc1c(C#N)cccc1-c1nc(N)c(F)c(-c2cn(Cc3ccn(C4CCOC4)n3)nn2)n1 [Compound L-77] | 0.001 | 0.003 |  |  |  |  |  | 
Cc1c(C#N)cccc1-c1nc(N)c(F)c(-c2cn(Cc3ccn(C4CCN(C)C4)n3)nn2)n1 [Compound L-90] | 0.005 | 0.029 |  |  |  |  |  | 
CCc1nccc(Cn2cc(-c3nc(-c4cccc(C#N)c4C)nc(N)c3Cl)nn2)n1 [Compound L-11] | 0.001 | 0.014 |  |  |  |  |  | 
Cc1c(C#N)cccc1-c1nc(N)c(F)c(-c2cn(Cc3cc(C)n(C)n3)nn2)n1 [Compound L-79] | 0.019 | 0.025 |  |  |  |  |  | 
Cc1c(C#N)cccc1-c1nc(N)c(F)c(-c2cn(Cc3cc(F)n(C)n3)nn2)n1 [Compound L-21] | 0.007 | 0.021 |  |  |  |  |  | 
Cc1c(C#N)cccc1-c1nc(N)c(F)c(-c2cn(Cc3cccc(C(C)(C)CO)n3)nn2)n1 [Compound L-63] | 0.001 | 0.005 |  |  |  |  |  | 
Cc1c(C#N)cccc1-c1cc(-c2cn(Cc3cccc(C(C)(C)O)n3)nn2)nc(N)n1 [Compound D1, reference compound] |  |  | 0.065 | 0.075 |  |  |  | 
